Measurements as given in US20260042762A1 (Kymera Therapeutics, Inc., priority 2018, published 2026).

Biological target: T1, MerTK (Homo sapiens, UniProt Q12866)
T1 construct: endogenous in cells; host or cells: Jurkat cells
T1 sequence (Q12866 21-999): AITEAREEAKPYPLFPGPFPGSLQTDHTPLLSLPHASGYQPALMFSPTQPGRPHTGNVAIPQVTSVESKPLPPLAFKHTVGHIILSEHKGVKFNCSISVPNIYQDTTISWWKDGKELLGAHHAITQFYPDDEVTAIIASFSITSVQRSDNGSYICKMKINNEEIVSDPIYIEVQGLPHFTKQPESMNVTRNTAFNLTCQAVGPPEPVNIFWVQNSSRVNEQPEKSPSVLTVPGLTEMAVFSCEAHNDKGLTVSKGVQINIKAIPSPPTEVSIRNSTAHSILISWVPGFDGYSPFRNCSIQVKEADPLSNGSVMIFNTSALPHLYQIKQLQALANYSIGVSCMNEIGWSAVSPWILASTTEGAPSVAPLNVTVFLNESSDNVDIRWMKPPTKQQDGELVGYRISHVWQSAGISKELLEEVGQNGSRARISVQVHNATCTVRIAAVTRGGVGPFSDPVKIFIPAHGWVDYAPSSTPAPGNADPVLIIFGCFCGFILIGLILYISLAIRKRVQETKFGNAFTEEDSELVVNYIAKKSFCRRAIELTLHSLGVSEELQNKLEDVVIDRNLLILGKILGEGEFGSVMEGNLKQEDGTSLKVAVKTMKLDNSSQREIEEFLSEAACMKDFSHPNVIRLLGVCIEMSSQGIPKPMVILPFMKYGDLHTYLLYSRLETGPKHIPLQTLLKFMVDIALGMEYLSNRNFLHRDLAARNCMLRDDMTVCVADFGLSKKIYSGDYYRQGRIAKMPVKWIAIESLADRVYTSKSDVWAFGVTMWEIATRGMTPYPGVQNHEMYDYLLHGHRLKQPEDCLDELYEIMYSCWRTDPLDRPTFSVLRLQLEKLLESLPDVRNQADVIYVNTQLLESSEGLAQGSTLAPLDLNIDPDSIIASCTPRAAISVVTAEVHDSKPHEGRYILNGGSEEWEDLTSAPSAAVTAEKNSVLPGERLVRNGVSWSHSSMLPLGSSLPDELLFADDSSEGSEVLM
Experiment: MerTk degradation in Jurkat cells (Western blot)
Format: cell-based
Settings: Jurkat, 4 h, 0.001-1 μM, 4 hour-incubation at 37° C., read-out: Jurkat Max % MerTK Degradation
Procedure, shortened: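 Jurkat cells treated 4 h at 37 °C with compound at 0.001-1 μM final. RIPA lysates quantified by BCA, then MerTK probed by Western blot against actin loading control with IR-dye secondaries and Odyssey imaging.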

SMILES	Dmax [%]
Cn1c(=O)n([C@H]2CCC(=O)NC2=O)c2ccc(CCCOCCCN3CCN(Cc4ccc(-c5cn([C@H]6CC[C@](C)(O)CC6)c6nc(NCCC(F)(F)F)ncc56)cc4)CC3)cc21 [I-142, 3-[3-methyl-2-oxo-5-[3-(3-[4-[(4-[7-[trans-4-hydroxy-4-methylcyclohexyl]-2-[(3,3,3-trifluoropropyl)amino]pyrrolo[2,3-d]pyrimidin-5-yl]phenyl)methyl]piperazin-1-yl]propoxy)propyl]-1,3-benzodiazol-1-yl]piperidine-2,6-dione]	> 50
Cn1c(=O)n([C@H]2CCC(=O)NC2=O)c2ccc(CCO[C@H]3C[C@@H](N4CCN(Cc5ccc(-c6cn([C@H]7CC[C@H](O)CC7)c7nc(NCCC(F)(F)F)ncc67)cc5)CC4)C3)cc21 [I-143, 3-[3-methyl-2-oxo-5-[2-(3-[4-[(4-[7-[trans-4-hydroxycyclohexyl]-2-[(3,3,3-trifluoropropyl)amino]pyrrolo[2,3-d]pyrimidin-5-yl]phenyl)methyl]piperazin-1-yl]cyclobutoxy)ethyl]-1,3-benzodiazol-1-yl]piperidine-2,6-dione; formic acid]	> 50
Cn1c(=O)n([C@H]2CCC(=O)NC2=O)c2ccc(CCOC3CN(C4CCN(Cc5ccc(-c6cn([C@H]7CC[C@H](O)CC7)c7nc(NCCC(F)(F)F)ncc67)cc5)CC4)C3)cc21 [I-144, 3-(3-methyl-2-oxo-5-[2-[(1-[1-[(4-[7-[trans-4-hydroxycyclohexy1]-2-[(3,3,3-trifluoropropyl)amino]pyrrolo[2,3-d]pyrimidin-5-yl]phenyl)methyl]piperidin-4-yl]azetidin-3-yl)oxy]ethyl]-1,3-benzodiazol-1-yl)piperidine-2,6-dione; formic acid]	> 50
Cn1c(=O)n([C@H]2CCC(=O)NC2=O)c2ccc(CCCC3CCN(C4CCN(Cc5ccc(-c6cn([C@H]7CC[C@H](O)CC7)c7nc(NCCC(F)(F)F)ncc67)cc5)CC4)CC3)cc21 [I-145, 3-[3-methyl-2-oxo-5-(3-[1-[(4-[7-[trans-4-hydroxycyclohexyl]-2-[(3,3,3-trifluoropropyl)amino]pyrrolo[2,3-d]pyrimidin-5-yl]phenyl)methyl]-[1,4-bipiperidin]-4-yl]propyl)-1,3-benzodiazol-1-y1]piperidine-2,6-dione; formic acid]	> 50
Cn1c(=O)n([C@H]2CCC(=O)NC2=O)c2ccc(CCOCCN3CCN(Cc4cccc(-c5cn([C@H]6CC[C@H](O)CC6)c6nc(NCCC(F)(F)F)ncc56)c4)CC3)cc21 [I-146, 3-[3-methyl-2-oxo-5-[2-(2-[4-[(3-[7-[trans-4-hydroxycyclohexy1]-2-[(3,3,3-trifluoropropyl)amino]pyrrolo[2,3-d]pyrimidin-5-yl]phenyl)methyl]piperazin-1-yl]ethoxy)ethyl]-1,3-benzodiazol-1-yl]piperidine-2,6-dione]	> 50
Cn1c(=O)n([C@H]2CCC(=O)NC2=O)c2ccc(CCOCCN3CCN(Cc4cn([C@H]5CC[C@H](O)CC5)c5nc(NCCC(F)(F)F)ncc45)CC3)cc21 [I-147, 3-[3-methyl-2-oxo-5-(2-[2-[4-([7-[(1r,4r)-4-hydroxycyclohexyl]-2-[(3,3,3-trifluoropropyl)amino]pyrrolo[2,3-d]pyrimidin-5-y1]methyl)piperazin-1-yl]ethoxy]ethyl)-1,3-benzodiazol-1-yl]piperidine-2,6-dione]	< 20

More lines, now with the values ahead:

Dmax [%]	SMILES
> 50	Cn1c(=O)n([C@H]2CCC(=O)NC2=O)c2ccc(COCCCN3CCN(Cc4ccc(-c5cn([C@H]6CC[C@H](O)CC6)c6nc(NCCC(F)(F)F)ncc56)cc4)CC3)cc21 [I-149, 3-[3-methyl-2-oxo-5-[(3-[4-[(4-[7-[trans-4-hydroxycyclohexy1]-2-[(3,3,3-trifluoropropyl)amino]pyrrolo[2,3-d]pyrimidin-5-yl]phenyl)methyl]piperazin-1-yl]propoxy)methyl]-1,3-benzodiazol-1-y1]piperidine-2,6-dione; formic acid]
> 50	Cn1c(=O)n([C@H]2CCC(=O)NC2=O)c2cccc(COCCCN3CCN(Cc4ccc(-c5cn([C@H]6CC[C@H](O)CC6)c6nc(NCCC(F)(F)F)ncc56)cc4)CC3)c21 [I-150, 3-[3-methyl-2-oxo-4-[(3-[4-[(4-[7-[trans-4-hydroxycyclohexyl]-2-[(3,3,3-trifluoropropyl)amino]pyrrolo[2,3-d]pyrimidin-5-yl]phenyl)methyl]piperazin-1-y1]propoxy)methyl]-1,3-benzodiazol-1-yl]piperidine-2,6-dione]
> 50	Cn1c(=O)n([C@H]2CCC(=O)NC2=O)c2ccc(COCCN3CCN(Cc4ccc(-c5cn([C@H]6CC[C@H](O)CC6)c6nc(NCCC(F)(F)F)ncc56)cc4)CC3)cc21 [I-151, trans-3-[3-methyl-2-oxo-5-[(2-[4-[(4-[7-[4-hydroxycyclohexy1]-2-[(3,3,3-trifluoropropyl)amino]pyrrolo[2,3-d]pyrimidin-5-y1]phenyl)methyl]piperazin-1-yl]ethoxy)methyl]-1,3-benzodiazol-1-yl]piperidine-2,6-dione; formic acid]
> 50	Cn1c(=O)n([C@H]2CCC(=O)NC2=O)c2cccc(COCCN3CCN(Cc4ccc(-c5cn([C@H]6CC[C@H](O)CC6)c6nc(NCCC(F)(F)F)ncc56)cc4)CC3)c21 [I-152, 3-[3-methyl-2-oxo-4-[(2-[4-[(4-[7-[trans-4-hydroxycyclohexyl]-2-[(3,3,3-trifluoropropyl)amino]pyrrolo[2,3-d]pyrimidin-5-yl]phenyl)methyl]piperazin-1-yl]ethoxy)methyl]-1,3-benzodiazol-1-yl]piperidine-2,6-dione; bis(formic acid)]
> 50	Cn1c(=O)n([C@H]2CCC(=O)NC2=O)c2ccc(CCCOCCOCCN3CCN(C[C@H]4CC[C@@H](c5cn([C@H]6CC[C@H](O)CC6)c6nc(NCCC(F)(F)F)ncc65)CC4)CC3)cc21 [I-153, 3-[3-methyl-2-oxo-5-(3-[2-[2-(4-[[(1s,4s)-4-[7-[trans-4-hydroxycyclohexyl]-2-[(3,3,3-trifluoropropyl)amino]pyrrolo[2,3-d]pyrimidin-5-yl]cyclohexyl]methyl]piperazin-1-yl)ethoxy]ethoxy]propyl)-1,3-benzodiazol-1-yl]piperidine-2,6-dione]
> 50	Cn1c(=O)n([C@H]2CCC(=O)NC2=O)c2ccc(CCCOCCOCCN3CCN(C[C@H]4CC[C@H](c5cn([C@H]6CC[C@H](O)CC6)c6nc(NCCC(F)(F)F)ncc65)CC4)CC3)cc21 [I-154, 3-[3-methyl-2-oxo-5-(3-[2-[2-(4-[[(1r,4r)-4-[7-[trans-4-hydroxycyclohexyl]-2-[(3,3,3-trifluoropropyl)amino]pyrrolo[2,3-d]pyrimidin-5-y1]cyclohexyl]methyl]piperazin-1-y1)ethoxy]ethoxy]propyl)-1,3-benzodiazol-1-yl]piperidine-2,6-dione]
> 50	Cn1c(=O)n([C@H]2CCC(=O)NC2=O)c2ccc(CCOC3CCN(C4CCN(Cc5ccc(-c6cn([C@H]7CC[C@H](O)CC7)c7nc(NCCC(F)(F)F)ncc67)cc5)CC4)CC3)cc21 [I-155, 3-[3-methyl-2-oxo-5-[2-([1-[(4-[7-[trans-4-hydroxycyclohexy1]-2-[(3,3,3-trifluoropropyl)amino]pyrrolo[2,3-d]pyrimidin-5-yl]phenyl)methyl]-[1,4-bipiperidin]-4-yl]oxy)ethyl]-1,3-benzodiazol-1-yl]piperidine-2,6-dione; formic acid]
> 50	Cn1c(=O)n([C@H]2CCC(=O)NC2=O)c2ccc(CCCC3CN(C4CCN(Cc5ccc(-c6cn([C@H]7CC[C@H](O)CC7)c7nc(NCCC(F)(F)F)ncc67)cc5)CC4)C3)cc21 [I-156, 3-[3-methyl-2-oxo-5-[3-(1-[1-[(4-[7-[trans-4-hydroxycyclohexy1]-2-[(3,3,3-trifluoropropyl)amino]pyrrolo[2,3-d]pyrimidin-5-y1]phenyl)methyl]piperidin-4-yl]azetidin-3-yl)propyl]-1,3-benzodiazol-1-yl]piperidine-2,6-dione; formic acid]
> 50	Cn1c(=O)n([C@H]2CCC(=O)NC2=O)c2ccc(COC3CCN(C4CCN(Cc5ccc(-c6cn([C@H]7CC[C@H](O)CC7)c7nc(NCCC(F)(F)F)ncc67)cc5)CC4)CC3)cc21 [I-157, 3-[3-methyl-2-oxo-5-[([1-[(4-[7-[trans-4-hydroxycyclohexy1]-2-[(3,3,3-trifluoropropyl)amino]pyrrolo[2,3-d]pyrimidin-5-yl]phenyl)methyl]-[1,4-bipiperidin]-4-yl]oxy)methyl]-1,3-benzodiazol-1-y1]piperidine-2,6-dione; formic acid]
